Experimental data: US12439945B2, “Method of improving flavor of a composition of (D)-β-hydroxybutyric acid and (D)-1,3 butanediol and use as a nutritional supplement and therapeutic agent” (VitaNav, Inc., priority 2020, dated 2025)

Test: Circulating ketone level and ketotic efficiency after administration of D-BHB, D-BHV and D-1,3BD in various ratios to subjects at rest
Format: in vivo, human
Settings: based on measured plasma levels of FIG. 1
Excerpt: Examples include using a composition including D-BHB, D-BHV, and D-1,3BD in a subject at rest. The ketotic efficiency represents the net elevation of circulating ketones a ketone supplement affects over time in an individual. Ketotic efficiency may be represented as: Σt=0^n(mMol/L)/(g/kg)*t where mMol/L is the concentration of circulating β-hydroxybutyrate in the blood, g is the total dose of the combined D-BHB, D-BHV, and D-1,3,BD in grams, kg is the mass of the individual in kilograms, and t is an increment of time in minutes.
While this example pertains to a fasted subject at rest, the relative utility of blended vs pure constituents has also been observed in fed and active subjects.
As illustrated by the examples of FIG. 1, these exemplary compositions can advantageously elevate circulating ketones by approximately two times greater than other known compositions. Such a composition can sustain ketonemia for longer than either D-BHB or D-1,3BD can when ingested alone by a subject of a given weight as shown by the 100% line (i.e., contains D-BHB, but not D-1,3BD) and the 0% line (i.e., contains only D-1,3BD, but not D-BHB).
As shown in the following table, the increase in circulating ketone level with a 10 g dose in three human subjects at rest was maximal at between 45-55% D-BHB in the tested compositions. […]

Row | Compound | prolonged rise of blood ketone levels
1 | CC(O)CCO [D-1,3BD, (D)-1,3 butanediol] | does not cause a prolonged rise of blood ketone levels
2 | CC(O)CC(=O)O [D-BHB, (D)-β-hydroxybutyric acid] | A similar result was obtained
